# According to paper PMC3024946, “Hydroxyproline-containing collagen analogs trigger the release and activation of collagen-sequestered proMMP-2 by competition with prodomain-derived peptide P33-42” (Fibrogenesis & Tissue Repair, 2011):
# “Also recorded” adds a separate entry of the source.
# How the values were obtained:
# [1] = target: T1, actMMP-2 / CI (Homo sapiens, UniProt P08253); experiment: SPR, competition of actMMP-2 binding to CI, MMP activity buffer with Ro 28-2653; settings: actMMP-2 100 nM, 1 μM Ro 28-2653, 25°C, mean ± SD, at least three experiments
# T1 construct: purchased Invitek
# T1 sequence (P08253 110-660): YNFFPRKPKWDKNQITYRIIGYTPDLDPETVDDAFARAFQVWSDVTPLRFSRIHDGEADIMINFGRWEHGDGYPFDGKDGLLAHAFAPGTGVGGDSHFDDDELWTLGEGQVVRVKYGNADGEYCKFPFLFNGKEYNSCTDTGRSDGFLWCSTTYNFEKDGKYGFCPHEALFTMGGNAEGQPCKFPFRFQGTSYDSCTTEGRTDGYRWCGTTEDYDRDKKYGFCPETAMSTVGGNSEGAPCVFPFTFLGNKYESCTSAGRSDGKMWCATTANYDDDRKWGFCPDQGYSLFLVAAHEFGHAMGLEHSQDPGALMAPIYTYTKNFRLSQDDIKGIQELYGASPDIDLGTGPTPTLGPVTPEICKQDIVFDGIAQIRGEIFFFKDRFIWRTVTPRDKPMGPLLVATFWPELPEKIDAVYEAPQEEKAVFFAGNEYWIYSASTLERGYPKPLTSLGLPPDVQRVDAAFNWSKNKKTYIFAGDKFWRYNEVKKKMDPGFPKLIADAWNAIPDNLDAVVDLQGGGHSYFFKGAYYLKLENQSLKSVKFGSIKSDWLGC
# Description: (§1) Sensor chip preparations and SPR measurements were performed using a BiacoreX device and the Bia-evaluation software (version 3.2; Biacore, Uppsala, Sweden). The pepsin-resistant triple-helical part of human fibrillar CI (100 μg/ml) in 10 mM acetate coupling buffer, pH 4.8, was immobilized to a dextran matrix-sensor chip at a flow rate of 5 μl/min, resulting in 5,500 resonance units from CI covalently linked via its primary amino groups. The control flow cell was prepared using the coupling buffer without CI. Surfaces were activated and blocked as described previously. […] The effects of (GPO)10, GAP, (POG)5, (GPP)10 and P33-42 on MMP-2 and MMP-9 binding to CI and their enzymatic activity were determined by adding the binding competitors to the (pro- and act)MMP-2 and MMP-9 solution in 10- to 150-fold molar excesses. Effects independent of MMP-2 and MMP-9 activity were monitored in the presence of Ro 28-2653 (1 μM) during SPR analysis. […] Kinetic parameters were analyzed using the 1:1 binding model with drifting baseline and subtraction of the control flow cell binding from sensorgrams obtained with immobilized CI. Binding constants (Kd) were calculated from the association (ka) and dissociation rates (kd) obtained from individual binding curves at different concentrations. […]
# [2] = target: T1, actMMP-2 / CI; experiment: SPR, competition of actMMP-2 binding to CI, nonactivating buffer
# Description: as §1
# [3] = system: ProMMP-2; experiment: Substrate gel zymography of treated proMMP-2; assay type: biochemical, human; settings: 50 ng proMMP-2, 2-h incubation at room temperature
# Description: Samples containing MMP-2 were diluted with zymogram sample buffer (Bio-Rad, Munich, Germany) and separated on homogeneous 10% SDS-PAGE gels containing 1 mg/ml (wt/vol) gelatine (Bio-Rad), washed with excess MMP activity buffer containing 2.5% (vol/vol) Triton X-100 to remove SDS, and incubated with MMP activity buffer for 24 h. Gels were stained with Coomassie Blue R-250. Gels showing proteolytic bands corresponding to proMMP-2 (72 kDa) or actMMP-2 (62 kDa) were scanned (Plustek, Norderstedt, Germany) and analyzed from inverted grayscale images.
# [4] = target: T2, proMMP-2 / CI (Homo sapiens, UniProt P08253); experiment: SPR, competition of proMMP-2 binding to CI, nonactivating buffer
# T2 construct: prodomain-containing proMMP-2 or proMMP-9; purchased Invitek
# T2 sequence (P08253 30-660 limits assumed): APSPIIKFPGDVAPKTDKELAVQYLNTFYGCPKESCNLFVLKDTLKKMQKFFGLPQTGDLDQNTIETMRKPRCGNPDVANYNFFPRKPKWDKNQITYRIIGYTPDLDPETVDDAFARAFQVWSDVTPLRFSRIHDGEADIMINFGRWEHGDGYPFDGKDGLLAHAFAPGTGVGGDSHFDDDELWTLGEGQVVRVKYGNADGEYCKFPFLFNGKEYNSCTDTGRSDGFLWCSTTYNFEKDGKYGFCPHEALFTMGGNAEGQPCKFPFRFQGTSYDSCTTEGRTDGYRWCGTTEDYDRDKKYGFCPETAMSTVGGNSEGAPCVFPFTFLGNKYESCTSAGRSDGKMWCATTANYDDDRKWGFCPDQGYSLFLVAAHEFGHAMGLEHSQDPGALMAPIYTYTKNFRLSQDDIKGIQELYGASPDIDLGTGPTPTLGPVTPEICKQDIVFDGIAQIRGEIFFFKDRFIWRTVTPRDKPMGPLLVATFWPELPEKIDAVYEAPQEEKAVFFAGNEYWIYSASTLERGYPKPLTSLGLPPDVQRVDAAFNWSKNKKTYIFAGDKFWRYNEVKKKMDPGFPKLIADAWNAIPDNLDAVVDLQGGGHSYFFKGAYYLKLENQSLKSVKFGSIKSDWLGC
# Description: as §1
substance,measurement,setting,value
"H-Gly-Cys-Hyp-(Gly-Pro-Hyp)10-Gly-Cys-Hyp-Gly-NH2 [(GPO)10, triple-helical Hyp-containing collagen analog]",Kd for binding to CI in the presence of 10-fold molar excess of competitor,[1],"2,710.0 ± 90.0 nM"
same,Off rate,"[2]; actMMP-2 (100 nM) binding to CI with 10× (GPO)10, PBS, 0.05% Tween 20",0.56 s⁻¹
same,effect on binding to CI,"[2]; actMMP-2, 10-fold molar excess",only slightly impaired
same,"substrate zymography, prodomain-free actMMP-2 band",[3],faint band of prodomain-free actMMP-2; also recorded: not accompanied by strong prodomain cleavage
same,Off rate,"[4]; proMMP-2 (100 nM) binding to CI with 10× (GPO)10, PBS, 0.05% Tween 20",0.37 s⁻¹
same,effect on binding to CI,"[4]; proMMP-2, 10-fold molar excess",only slightly impaired
